In patent US8507483B2, “1H-pyrimidin-2-one derivatives, preparation thereof and pharmaceutical use thereof as inhibitors of AKT (PKB) phosphorylation” (Sanofi, priority 2009, dated 2013) one finds IC50 data, which are given here for 29 compounds.

This assay concerns AKT protein phosphorylated on serine 473 (P-AKT-S473) in PC3 human prostate carcinoma cells. The assay can be described thus: pAKT expression in PC3 cells measured by MSD Multi-spot Biomarker Detection (Test B). It counts as cell-based. As to conditions: PC-3, inhibition of AKT Ser473 phosphorylation, 1 to 2 h incubation, MSD sandwich immunoassay, absolute IC50, mean of two experiments. Here is the method:
The inhibitory activity of the molecules on AKT phosphorylation is measured either by western blotting using the technique described below, or by the MSD Multi-spot Biomarker detection technique from Meso Scale Discovery also described below.
Where appropriate, the activity of the products is translated into approximately IC50, obtained from a dose-response curve of various concentrations tested and representing the dose giving 50% of specific inhibition (absolute IC50). Two independent experiments make it possible to calculate the mean of the IC50s. Study of pAKT expression in PC3 human prostate carcinoma cells measured by the MSD Multi-spot Biomarker Detection technique from Meso Scale Discovery (Test B): This test is based on measuring the expression of the AKT protein phosphorylated on serine 473 (P-AKT-S473), in the PC3 human prostate carcinoma line, by means of the technique based on a sandwich immunoassay using the MSD Multi-spot Biomarker Detection kit from Meso Scale Discovery: phospho-Akt (Ser473) whole cell lysate kit (#K151 CAD) or phospho-Akt (Ser473)/Total Akt whole cell lysate kit (#K151OOD).
The primary antibody specific for P-AKT-5473 (Kit #K151 CAD) is coated onto an electrode in each well of the 96-well plates of the MSD kit: after the addition of a protein lysate to each well, the signal is visualised by adding a secondary detection antibody labelled with an electrochemoluminescent compound. The procedure followed is that described in the kit.
On day 1, the PC3 cells are seeded into 96-well plates (TPP, #92096) at the concentration of 35 000 cells/well in 200 μl of DMEM medium (DMEM Gibco #11960-044) containing 10% of foetal calf serum (FCS Gibco, #10500-056) and 1% glutamine (L-Glu Gibco #25030-024), and incubated at 37° C., 5% CO2, overnight.
On day 2, the cells are incubated in the presence or absence of the test products for 1 to 2 h at 37° C. in the presence of 5% of CO2. The molecules, diluted in dimethyl sulphoxide (DMSO Sigma #D2650), are added from a 20-times concentrated stock solution, the final percentage of DMSO being 0.1%. The molecules are tested either at a single concentration of less than or equal to 10 μM, or at increasing concentrations in a range that can extend from less than 1 nM to 10 μM.
After this incubation, the cells are lysed for the preparation of the proteins. For this, after the culture medium has been drawn off, […] of complete Tris Lysis Buffer of the MSD kit containing the protease and phosphatase inhibitor solutions are added to the wells and the cells are lysed for 1 h at 4° C. with shaking At this stage, the plates containing the lysates can be frozen at −20° C. or at −80° C.
The wells of the 96-well plates of the MSD kit are saturated for 1 h at ambient temperature with the blocking solution of the MSD kit. Four washes are carried out with 150 μl of Tris Wash Buffer of the MSD kit. The lysates previously prepared are transferred into the 96-well multi-spot plates of the MSD kit and incubated for 1 h at ambient temperature, with shaking Four washes are carried out with 150 μl of Tris Wash Buffer of the MSD kit. 25 μl of the MSD sulpho-tag detection antibody solution are added to the wells and incubated for 1 h at ambient temperature, with shaking Four washes are carried out with 150 μl of Tris Wash Buffer of the MSD kit. 150 μl of Read Buffer of the MSD kit are added to the wells and the plates are read immediately on the 512400 instrument from Meso Scale Discovery.
The instrument measures a signal for each well. Wells without cells and containing the lysis buffer serve to determine the background noise that will be subtracted from all the measurements (min). The wells containing cells in the absence of product and in the presence of 0.1% DMSO are considered to be the 100% signal (max). The percentage inhibition is calculated for each concentration of test product according to the following formula: (1−((test−min)/(max−min)))×100. […]

pIC50: −log10 of the molar value.

What is called pIC50 is −log10 of the IC50, conventionally taken in molar units. A lower pIC50 goes with a large IC50.

The compound `Cn1c(Cc2nc(N3CCOCC3)cc(=O)[nH]2)nc2cccc(Br)c21` [Example 41, 2-[(7-Bromo-1-methyl-1H-benzimidazol-2-yl)methyl]-6-(morpholin-4-yl)pyrimidin-4(3H)-one] showed a pIC50 of 7.49.

Compound `O=c1cc(N2CCOCC2)nc(Cc2nc3ccccc3n2-c2ccccc2)[nH]1` [Example 13, 6-(morpholin-4-yl)-2-[(1-phenyl-1H-benzimidazol-2-yl)methyl]pyrimidin-4(3H)-one] gave a pIC50 of 8.10.

Turning to `O=c1cc(N2CCOCC2)nc(Cc2nc3ccc(C(F)(F)F)cc3[nH]2)[nH]1` [Example 26, 6-(morpholin-4-yl)-2-{[6-(trifluoromethyl)-1H-benzimidazol-2-yl]methyl}pyrimidine-4(3H)-one], the pIC50 is 6.02. The figure for `Cn1c(Cc2nc(N3CCOCC3)cc(=O)[nH]2)nc2cc(F)c(F)c(F)c21` [Example 39, 6-(Morpholin-4-yl)-2-[(5,6,7-trifluoro-1-methyl-1H-benzimidazol-2-yl)methyl]pyrimidin-4(3H)-one] is 7.00; for `COc1ccc2nc(Cc3nc(N4CCOCC4)cc(=O)[nH]3)[nH]c2c1` [Example 4, 2-[(6-methoxy-1H-benzimidazol-2-yl)methyl]-6-(morpholin-4-yl)pyrimidin-4(3H)-one] it is 6.32; for `Cn1c(Cc2nc(N3CCOCC3)cc(=O)[nH]2)nc2cc(Cl)c(Cl)cc21` [Example 38, 2-[(5,6-Dichloro-1-methyl-1H-benzimidazol-2-yl)methyl]-6-(morpholin-4-yl)pyrimidin-4(3H)-one] it is 7.19. As for `COCCn1c(Cc2nc(N3CCOCC3)cc(=O)[nH]2)nc2cc(F)ccc21` [Example 19, 2-{[5-fluoro-1-(2-methoxyethyl)-1H-benzimidazol-2-yl]methyl}-6-(morpholin-4-yl)pyrimidin-4(3H)-one], the figure is 6.96; as for `Cn1c(Cc2nc(N3CCOCC3)cc(=O)[nH]2)nc2ccc(Br)cc21` [Example 36, 2-[(6-Bromo-1-methyl-1H-benzimidazol-2-yl)methyl]-6-(morpholin-4-yl)pyrimidin-4(3H)-one], 7.55. As for `O=c1cc(N2CCOCC2)nc(Cc2nc3ccccc3n2Cc2ccccc2)[nH]1` [Example 14, 2-[(1-benzyl-1H-benzimidazol-2-yl)methyl]-6-(morpholin-4-yl)pyrimidin-4(3H)-one], the negative logarithm of the IC50 (pIC50) was 6.98. The figure for `CCn1c(Cc2nc(N3CCOCC3)cc(=O)[nH]2)nc2ccccc21` [Example 15, 2-[(1-ethyl-1H-benzimidazol-2-yl)methyl]-6-(morpholin-4-yl)pyrimidin-4(3H)-one] is 7.59. The figure for `O=c1cc(N2CCOCC2)nc(Cc2nc3c(O)cccc3o2)[nH]1` [Example 40, 2-[(4-hydroxy-1,3-benzoxazol-2-yl)methyl]-6-(morpholin-4-yl)pyrimidin-4(3H)-one] is 7.36; for `Cc1ccc2nc(Cc3nc(N4CCOCC4)cc(=O)[nH]3)oc2c1` [Example 8, 2-[(6-methyl-1,3-benzoxazol-2-yl)methyl]-6-(morpholin-4-yl)pyrimidin-4(3H)one] it is 6.84; for `O=c1cc(N2CCOCC2)nc(Cc2nc3cc(F)cc(F)c3[nH]2)[nH]1` [Example 31, 2-[(5,7-difluoro-1H-benzimidazol-2-yl)methyl]-6-(morpholin-4-yl)pyrimidine-4(3H)-one] it is 6.84. Turning to `Cn1c(Cc2nc(N3CCOCC3)cc(=O)[nH]2)nc2cc(F)ccc21` [Example 11, 2-[(5-fluoro-1-methyl-1H-benzimidazol-2-yl)methyl]-6-(morpholin-4-yl)pyrimidin-4(3H)-one], the pIC50 was 7.80. The figure for `O=c1cc(N2CCOCC2)nc(Cc2nc3c(F)c(F)ccc3[nH]2)[nH]1` [Example 28, 2-[(6,7-difluoro-1H-benzimidazol-2-yl)methyl]-6-(morpholin-4-yl)pyrimidine-4(3H)-one] is 6.23; for `CC(c1ccccc1)n1c(Cc2nc(N3CCOCC3)cc(=O)[nH]2)nc2cc(Cl)ccc21` (centres unmarked) [Example 32, 2-{[5-chloro-1-(1-phenylethyl)-1H-benzimidazol-2-yl]methyl}-6-(morpholin-4-yl)pyrimidine-4(3H)-one] it is 6.69. As for `COc1ccc2nc(Cc3nc(N4CCOCC4)cc(=O)[nH]3)oc2c1` [Example 21, 2-[(6-methoxy-1,3-benzoxazol-2-yl)methyl]-6-(morpholin-4-yl)pyrimidin-4(3H)-one], the figure is 7.74; as for `O=c1cc(N2CCOCC2)nc(Cc2nc3ccc(Cl)cc3[nH]2)[nH]1` [Example 17, 2-[(6-chloro-1H-benzimidazol-2-yl)methyl]-6-(morpholin-4-yl)pyrimidin-4(3H)-one], 7.20.

With `O=c1cc(N2CCOCC2)nc(Cc2nc3cc(F)c(F)c(F)c3[nH]2)[nH]1` [Example 34, 6-(morphlolin-4-yl)-2-[(5,6,7-trifluoro-1H-benzimidazol-2-yl)methyl]pyrimidin-4(3H)-one], the pIC50 is 6.68.

`O=c1cc(N2CCOCC2)nc(Cc2nc3ccc(F)c(F)c3o2)[nH]1` [Example 22, 2-[(6,7-difluoro-1,3-benzoxazol-2-yl)methyl]-6-(morpholin-4-yl)pyrimidin-4(3H)-one] had a negative-log IC50 (pIC50) of 7.55. Take `Cn1c(Cc2nc(N3CCOCC3)cc(=O)[nH]2)nc2ccc(F)c(F)c21` [Example 37, 2-[(6,7-Difluoro-1-methyl-1H-benzimidazol-2-yl)methyl]-6-(morpholin-4-yl)pyrimidin-4(3H)-one]: the pIC50 is 7.82. As for `O=c1cc(N2CCOCC2)nc(Cc2nc3cc(F)c(Cl)cc3[nH]2)[nH]1` [Example 27, 2-[(5-chloro-6-fluoro-1H-benzimidazol-2-yl)methyl]-6-(morpholin-4-yl)pyrimidin-4(3H)-one], the figure is 6.59; as for `Cc1ccc2nc(Cc3nc(N4CCOCC4)cc(=O)[nH]3)[nH]c2c1` [Example 24, 2-[(6-methyl-1H-benzimidazol-2-yl)methyl]-6-(morpholin-4 yl)pyrimidin-4(3H)-one], 6.85; as for `Cc1cc2nc(Cc3nc(N4CCOCC4)cc(=O)[nH]3)[nH]c2cc1Cl` [Example 29, 2-[(5-chloro-6-methyl-1H-benzimidazol-2-yl)methyl]-6-(morpholin-4-yl)pyrimidin-4(3H)-one], 6.30.

Regarding `O=c1cc(N2CCOCC2)nc(Cc2nc3cc(F)c(F)cc3o2)[nH]1` [Example 16, 2-[(5,6-difluoro-1,3-benzoxazol-2-yl)methyl]-6-(morpholin-4-yl)pyrimidin-4(3H)-one], the negative-log IC50 (pIC50) is 6.73.

Turning to `O=c1cc(N2CCOCC2)nc(Cc2nc3c(Cl)cc(C(F)(F)F)cc3[nH]2)[nH]1` [Example 25, 2-{[4-chloro-6-(trifluoromethyl)-1H-benzimidazol-2-yl]methyl}-6-(morpholin-4-yl)pyrimidin-4(3H)-one], the negative logarithm of the IC50 (pIC50) is 5.52.

On to `O=c1cc(N2CCOCC2)nc(Cc2nc3ccc(Br)cc3o2)[nH]1` [Example 9, 2-[(6-bromo-1,3-benzoxazol-2-yl)methyl]-6-(morpholin-4-yl)pyrimidin-4(3H)-one], for which the negative logarithm of the IC50 (pIC50) is 6.76. As for `O=c1cc(N2CCOCC2)nc(Cc2nc3cccc(F)c3o2)[nH]1` [Example 12, 2-[(7-fluoro-1,3-benzoxazol-2-yl)methyl]-6-(morpholin-4-yl)pyrimidin-4(3H)-one], the figure is 7.06. `N#CCn1c(Cc2nc(N3CCOCC3)cc(=O)[nH]2)nc2ccccc21` [Example 30, (2-{[4-(morpholin-4-yl)-6-oxo-1,6-dihydropyrimidin-2-yl]methyl}-1H-benzimidazol-1-yl)acetonitrile] had a pIC50 of 5.87.
